Earlier results in patent US20140294923A1, “ACTH FOR TREATMENT OF MIGRAINE HEADACHE” (priority 2013, published 2014).

Test system: CGRP release
Conditions: experimental models; Ulrich-Lai 2001

## ACTH (SYSMEHFRWGKPVGKKRRPVKVYPDGAEDQLAEAFPLEF)
  release of CGRP: inhibit the release of CGRP
